The source of these data is patent publication US11857579B2, “Composition for promoting the secretion of FGF21” (MORINAGA MILK INDUSTRY CO., LTD., priority 2018, dated 2024).

In one experiment the test system is FGF21 gene in liver. Description: Expression of FGF21 gene in liver by RT-PCR after oral administration to neonatal mice. Format: in vivo, C57BL/6J male mice. From the text: (§1) Bacterial cell powder (2.4×10^11 cfu/g) of Bifidobacterium breve M-16V (NITE BP-02622) triturated with starch was suspended in physiological saline to prepare a Bifidobacterium liquid of 2.5×10^9 cfu/ml.
(§2) Lactulose (manufactured by Morinaga Milk Industry Co., Ltd.), raffinose (product name: Nitten Rraffinose, manufactured by Nippon Beet Sugar Manufacturing Co., Ltd.), and galactooligosaccharide were mixed at a ratio by weight of 1:1:1 and diluted in distilled water to prepare an oligosaccharide stock solution having a total final concentration of 250 mg/ml. The galactooligosaccharide is obtained by removing monosaccharides and disaccharides from a commercial product (product name: Oligomate 55N, manufactured by Yakult Pharmaceutical Industry Co., Ltd.) and contains about 65% by weight of Galβ1-4Galβ1-4Glc (4′-galactosyl lactose) and about 15% by weight of Galβ1-6Galβ1-4Glc (6′-galactosyl lactose). […]
(§3) Each animal was subjected to anatomy at 21 days old and the serum and liver were taken out of the body. The FGF21 concentration in the serum and the expression of FGF21 gene in the liver were determined. The FGF21 concentration in the serum was measured with an ELISA kit (manufactured by R&D Systems). The expression of FGF21 gene in the liver was measured by RT-PCR. […]

A further experiment concerns FGF21. The experiment can be described thus: FGF21 concentration in serum by ELISA after oral administration to neonatal mice. In kind it is in vivo, C57BL/6J male mice. The conditions noted are these: 100 μl once a day during 6 to 20 days old, serum taken at 21 days old.
Description: as §1, §2, §3
Background: In an ELISA, binding on a coated surface is turned into a signal by an enzyme label.

“Bifidobacterium breve M-16V (NITE BP-02622) [Group B]”: the “Expression of FGF21 gene in the liver compared with group A and group C” value in the experiment with FGF21 gene in liver (at 21 days old, versus group A (vehicle) and group C (oligosaccharide)) is “significantly higher”. For the same substance, the “Expression of FGF21 gene in liver (values relative to the value of Group A which was taken as 100.0), Average” value in the experiment with FGF21 gene in liver (neonatal mice, 100 μl once a day during 6 to 20 days old, liver taken at 21 days old, RT-PCR, Group A (vehicle) = 100.0) is reported as 197.7. Besides, the “FGF21 Concentration in serum, Average” value with FGF21 was determined as 397.3 pg/mL.
